Like-named read-outs stand apart in the source and are kept apart here.

The series in a line: Maximum (saturation) solubility in 10 mM citric buffer, HPLC assay. It is filed as physicochemical. Particulars: for solubility at 48 h: 10 mM citric buffer, thermodynamic from solid. The protocol: In order to compare the maximum solubility of pharmaceutically acceptable salts of rotigotine, e.g. rotigotine.H3PO4, with rotigotine.HCl, the solubility studies of rotigotine.salts were carried out as described by Nugroho et al. (Pharm. Res. 21 (2004), 844-855), which is incorporated herein by reference, who determined the solubility of rotigotine.HCl. Briefly, rotigotine.salt was solubilized in 10 mM citric buffer at pH 4, 5 and 6 with and without the presence of NaCl (at room temperature). Subsequent adjustment of pH in each test tube was performed by alternating adding small quantities of 1M NaOH under continuous shaking and subsequent pH measurements, until the pH of each solution had stabilized at the original buffer value. Each solution was shaken for an additional 48 hours, after which each solution was centrifuged and filtered. The concentration in each solution was determined by HPLC. Room temperature or ambient as used in the present application is to be understood to apply to a range from 18° C. to 25° C., preferred is about 20° C.
The maximum solubilities of rotigotine hydrochloride (abbreviated as Ro.HCl) and rotigotine hydrophosphate (abbreviated as rotigotine.H3PO4 or Ro.H3PO4) have been investigated as a function of pH in a number of solvents (table.1). Ro.H3PO4 was dissolved in the indicated buffer upon which the pH of the formed solution was adjusted to the target value by addition of sodium hydroxide solution. […] The drug was assayed by HPLC analysis in the filtered solution.
• Column: Merck Superspher 60 RP select B, length: 7.5 cm, column internal diameter: 4 mm, particle size: 5 μm • Mobile phase: 60% (v/v) water, 40% (v/v) acetonitrile 0.05% (v/v) methanesulfonic acid • Flow: 1.0 ml/min • Injection volume: collected fractions: 50 μl, diluted donor solutions: 4 μl • Column temperature: ambient • Detection: fluorescence, λex=276 nm, λem=302 nm

`CCCN(CCc1cccs1)[C@H]1CCc2c(O)cccc2C1.O=P(O)(O)O` [rotigotine.H3PO4, rotigotine dihydrogen phosphate]: the solubility (commonly the concentration that dissolves in the medium under given conditions) at 48 h runs as follows: (aqueous buffer, pH range of about 4 to 5.5, read-out: water solubility) 34 to 83 mM; (pH 4, aqueous buffer, pH 4, 68 mM NaCl, n = 2-3, read-out: Solubility) 80.1 mM; (pH 4, aqueous buffer, pH 4, no NaCl, n = 2-3, read-out: Solubility) 83.5 mM; (pH 5, aqueous buffer, pH 5, 68 mM NaCl, n = 2-3, read-out: Solubility) 43 mM; (pH 5, aqueous buffer, pH 5, no NaCl, n = 2-3, read-out: Solubility) 41.9 mM; (pH 6, aqueous buffer, pH 6, 68 mM NaCl, n = 2-3, read-out: Solubility) 14.4 mM. The solubility at 48 h (pH 6, aqueous buffer, pH 6, no NaCl, n = 2-3, read-out: Solubility) came out at 15.7 mM. The “solubility fold higher compared to rotigotine-HCl” value reads like this: (pH 4) 12 fold; (pH 5) 7 fold; (pH 6) 2 fold. Moreover, for the setting “selected pH values 4, 5, 6, 68 mM NaCl, 2-way ANOVA p>0.05”, the “effect of addition of NaCl on solubility” value is listed as “did not affect significantly”.
